Columns and labels:
Type in all cases: ADME, organism-based
[1] = Volume of distribution at steady state in Sprague-Dawley rat at 1 mg/kg, iv; parameters: dose 1 mg/kg, route intravenous; conditions: in vivo, read-out: Vdss
[2] = Oral bioavailability in Sprague-Dawley rat at 2 mg/kg; conditions: in vivo
[3] = Cmax in Sprague-Dawley rat at 2 mg/kg, po; parameters: dose 2 mg/kg, route oral; conditions: in vivo
[4] = AUC in Sprague-Dawley rat at 2 mg/kg, po; parameters: dose 2 mg/kg, route oral; conditions: plasma

Vd [1] [L/kg] | bioavailability [2] [%] | Cmax [3] [nM] | AUC [4] [µM·h] | SMILES
0.27 | 66 | 8000 | 43.4 | COc1ccc2c(c1)CC(c1nc3ccc(-c4cn[nH]c4)cc3c(=O)[nH]1)CO2 (centres undefined)
0.14 | 46 | 2850 | 63.2 | COc1ccc2c(c1)C[C@H](c1nc3ccc(-c4cn[nH]c4)cc3c(=O)[nH]1)CO2
0.49 | 13 | 580 | 2.36 | COc1ccc2c(c1)C[C@@H](c1nc3ccc(-c4cn[nH]c4)cc3c(=O)[nH]1)CO2

The next lines start with the compound.

SMILES | Vd [1] [L/kg] | bioavailability [2] [%] | Cmax [3] [nM] | AUC [4] [µM·h]
COc1ccc2c(c1)CC(c1nc3c(OC)cc(-c4cn[nH]c4)cc3c(=O)[nH]1)CO2 (centres undefined) | 0.1 | 26 | 4600 | 87.9
COc1ccc2c(c1)CC(c1nc3c(OCCN(C)C)cc(-c4cn[nH]c4)cc3c(=O)[nH]1)CO2 (centres undefined) | 1.3 | 3 | 50 | 0.15
COc1cccc(OCc2nc3c(OC)cc(-c4cn[nH]c4)cc3c(=O)[nH]2)c1 | 0.22 | 15 | 660 | 9.63
